Reference: patent US20250263376A1, “(E)-N-CINNAMOYLAMINOALKANOLS WITH MELANOGENESIS INHIBITORY ACTIVITY” (Uniwersytet Jagiellonski, priority 2024, published 2025)
Where “and” joins values, the source holds several entries; their conditions need not be identical. Equal entries are not always repeated.

Tests used:
[1] = Lipophilicity coefficient RM0 by reversed phase thin layer chromatography; type: physicochemical; conditions: RP-18 TLC, methanol/phosphate buffer pH=7.4
Experimental: Confirmation of the identity and purity of the obtained compounds consisted in the registration and interpretation of 1H NMR and 13C NMR spectra (the spectra were recorded using an ECZR 500 MHZ (JEOL) series FT-NMR spectrophotometer), as well as the registration and interpretation of LC-MS spectra (the spectra were recorded using Acquita UPLC system (Waters) coupled with a Waters TQD mass spectrometer). The melting point was measured using the open capillary method in the IA9300 device (Electrothermal). The lipophilicity coefficient RM0 was determined by reversed phase thin layer chromatography. In the study, aluminum plates 20×20 cm covered with modified silica gel RP-18 F254 (Merck) were used as the solid phase. The mobile phase consisted of solutions of methanol and 100 mM phosphate buffer (pH=7.4), characterized by a variable methanol content ranging from 95 to 65% (v/v). The tested compounds were dissolved in methanol to obtain solutions with a concentration of 1 mg/mL. Then, […] of the solutions prepared in this way were transferred to the starting line on aluminum plates, which were then placed in chromatographic chambers previously saturated with mobile phase vapors for at least 1 hour. All activities, including the development of chromatograms, were carried out at room temperature. After developing the chromatograms to approximately 1-2 cm from the end of the plate, the plates were dried and then the distance traveled by the tested compounds was visualized under UV light (λ=254 nm). The experiment was performed in duplicate for the specified conditions. For all samples, Rf was calculated according to the formula Rf=a/b, where a—the distance traveled by the tested compound, b—the distance traveled by the mobile phase. Then, the RM parameter was calculated for all samples according to the formula RM=log (1/Rf−1), obtaining a linear relationship between the RM values and the methanol concentration in the mobile phase. The log P coefficient was also calculated using the following computer programs: ACD/ChemSketch 2020.1.2 and ChemDraw 20.0.0.41.

[2] = target: T1, tyrosinase from mushroom (Agaricus bisporus, UniProt C7FF04); assay: Inhibition of commercial mushroom tyrosinase, substrate L-DOPA; type: biochemical; conditions: for inhibition at 500 µM: read-out: Tyrosinase inhibition with L-DOPA [%]
T1 sequence (C7FF04 2-392): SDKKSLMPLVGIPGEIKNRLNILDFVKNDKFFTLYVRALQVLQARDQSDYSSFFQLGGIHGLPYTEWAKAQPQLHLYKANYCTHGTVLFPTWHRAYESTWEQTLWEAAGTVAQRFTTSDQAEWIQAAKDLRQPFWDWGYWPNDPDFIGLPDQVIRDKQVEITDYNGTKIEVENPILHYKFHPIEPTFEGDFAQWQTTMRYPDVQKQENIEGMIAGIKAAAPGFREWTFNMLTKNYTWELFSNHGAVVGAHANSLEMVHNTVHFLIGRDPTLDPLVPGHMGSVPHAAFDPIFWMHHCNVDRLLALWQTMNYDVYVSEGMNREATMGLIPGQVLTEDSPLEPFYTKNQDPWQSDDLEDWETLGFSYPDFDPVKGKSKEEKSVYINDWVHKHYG
T1 sequence (G1K3P4 entry or part of it, further chain): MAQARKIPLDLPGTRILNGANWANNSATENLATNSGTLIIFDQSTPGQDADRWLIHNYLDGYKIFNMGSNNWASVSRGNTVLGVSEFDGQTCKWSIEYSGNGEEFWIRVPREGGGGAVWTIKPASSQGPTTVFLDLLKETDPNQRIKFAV
Experimental: (§1) Studies on the Inhibition of the Activity of Commercial Tyrosinase from Mushroom (Sigma: T3824)
(§2) The following substrates were used for the enzymatic reaction: L-tyrosine and L-3,4-dihyroxyphenylalanine (L-DOPA). Both substrates were used in independent experiments. According to the literature, the use of L-DOPA enables the assessment of tyrosinase diphenolase activity, and L-tyrosine—the tyrosinase monophenolase activity. The determinations were performed in 96-well plates, in each well there was placed: 170 μL or 127.5 μL of 50 mM phosphate buffer (pH=6.8) with tyrosinase (1U/well or 3U/well) and 10 μL of a solution of the tested compound in DMSO (the final concentration in the well was 500 μM, 250 μM or 125 μM). The negative control used 10 u L of pure solvent (DMSO). To initiate the reaction, an appropriate substrate was added: L-tyrosine (62.5 μL of solution in phosphate buffer) or L-DOPA (20 μL of solution in phosphate buffer). After a 25-minute incubation, the absorbance was measured at 475 nm using a microplate reader. The percentage of inhibition of tyrosinase activity was calculated using the formula: [(AC−AT)/[…], where AC—is the absorbance of the negative control, AT—is the absorbance of the sample containing the tested compound.

[3] = target: T1, tyrosinase from mushroom; assay: Inhibition of commercial mushroom tyrosinase, substrate L-tyrosine; type: biochemical; conditions: for inhibition at 500 µM: read-out: Tyrosinase inhibition with L-tyrosine [%]
Experimental: as §1, §2

[4] = test system: B16-F10 murine melanoma cell line; assay: Cytotoxicity (MTT) in B16-F10 murine melanoma cells; type: cell-based; conditions: 48 h
Experimental: Cytotoxicity Assessment in the B16-F10 Murine Melanoma Cell Line (ATTC CRL-6745)—Preliminary Safety Assessment for Subsequent Studies
In order to determine safe doses of compounds for testing the inhibition of melanogenesis in a murine melanoma cell line, cytotoxicity tests were performed. Cytotoxicity was determined by the colorimetric method using MTT ([3-(4,5-dimethyl-2-thiazolyl)-2,5-diphenyl-2H-tetrazolium bromide, Sigma M5655). For this purpose, cells were transferred to 96-well plates in an amount of 5000/well. After 24 h of culture in an incubator in F10-Ham medium with 1% FBS, the tested compounds at various concentrations were added to the wells together with fresh medium. DMSO was added to the medium in a negative control. The MTT test was performed after further culture for 48 h. Then the medium was removed and the formed formazan crystals were dissolved in DMSO. The absorbance was measured at 570 nm in a plate reader and the result was compared to the control (DMSO), which was 100%. The percentage of viability was calculated using the formula: [AT/AC*100], where AT is the absorbance of the test sample, AC—absorbance of the control sample.

[5] = test system: S. typhimurium TA98; assay: Ames microplate test, TA98; type: cell-based, Salmonella typhimurium; conditions: positive control 0.5 μg/mL, + S9
Experimental: Bacteria were grown overnight in growth medium.

[6] = test system: S. typhimurium TA100; assay: Ames microplate test, TA100; type: cell-based, Salmonella typhimurium; conditions: positive control 1.25 μg/mL, + S9
Experimental: The study used the Ames microplate test (Ames MPF™ Penta 2 by Xenometrix, Allschwil, Switzerland). Growth medium, exposure medium, indicator medium, positive controls, hepatic microsomal fraction, NADP, glucose-6-phosphate, Salmonella typhimurium and Escherichia coli strains were components of the purchased experimental kit. Bacteria were grown overnight in growth medium. They were then exposed to the test compound at the appropriate concentration in exposure medium without or with the rat microsomal fraction S9 in 24-well plates for 90 min at 37° C. with shaking. Then, indicator medium was added to the wells and pipetted into 384-well plates, which were incubated for 48 hours at 37° C. without shaking. Results were assessed by counting the wells in which the medium turned yellow for each experimental condition.

[7] = test system: S. typhimurium TA1535; assay: Ames microplate test, TA1535; conditions: positive control 2.5 μg/mL, + S9;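 further: bacteria exposed 90 min at 37 °C in exposure medium, then 48 h in indicator medium in 384-well plates, yellow (revertant) wells counted per condition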

CCC(CO)NC(=O)/C=C/c1ccc(Cl)cc1 (centres unmarked) [Compound A-01, (2E)-3-(4-chlorophenyl)-N-(1-hydroxybutan-2-yl)prop-2-enamide]
RM0 [1]: 2.43 | inhibition at 500 µM [2]: 44 ± 2.6% | inhibition at 500 µM [3]: 61.8 ± 0.4% | Cytotoxicity study in B16F10 cells, % viability ([4]; 150 μM): 73.6% | Cytotoxicity study in B16F10 cells, % viability ([4]; 200 μM): 93.2% | Cytotoxicity study in B16F10 cells, % viability ([4]; 250 μM): 85.4%

CCC(O)CNC(=O)/C=C/c1ccc(Cl)cc1Cl (centres unmarked) [H-320/21, (2E)-3-(2,4-dichlorophenyl)-N-(2-hydroxybutyl)prop-2-enamide]
RM0 [1]: 3.08 | inhibition at 500 µM [2]: 5.8 ± 3.04% | inhibition at 500 µM [3]: 24.4 ± 8.05% | Cytotoxicity study in B16F10 cells, % viability ([4]; 150 μM): 101.7% | Cytotoxicity study in B16F10 cells, % viability ([4]; 200 μM): 90.8% | Cytotoxicity study in B16F10 cells, % viability ([4]; 250 μM): 33.9%

Nc1ccc2cc3ccccc3cc2c1 [Compound 2-AA, 2-aminoanthracene, reference compound]
Increase in the number of yellow wells compared to the reference level, TA98 [5]: 24.00 and 15.03 | Increase in the number of yellow wells compared to the reference level, TA100 [6]: 4.00

O=C(/C=C/c1ccc(Cl)cc1Cl)NCCCCO [H-298/20, (2E)-3-(2,4-dichlorophenyl)-N-(4-hydroxybutyl)prop-2-enamide]
RM0 [1]: 2.78 | inhibition at 500 µM [2]: 11.2 ± 2.78% | inhibition at 500 µM [3]: 20 ± 2.96% | Cytotoxicity study in B16F10 cells, % viability ([4]; 150 μM): 46.5% | Cytotoxicity study in B16F10 cells, % viability ([4]; 200 μM): 40.6% | Cytotoxicity study in B16F10 cells, % viability ([4]; 250 μM): 37.4%

CCC(CO)NC(=O)/C=C/c1ccc(Cl)cc1Cl (centres unmarked) [H-285/20, (2E)-3-(2,4-dichlorophenyl)-N-(1-hydroxybutan-2-yl)prop-2-enamide]
RM0 [1]: 3.08 | inhibition at 500 µM [2]: 0.21 ± 5.64% | inhibition at 500 µM [3]: 14.6 ± 1.63% | Cytotoxicity study in B16F10 cells, % viability ([4]; 150 μM): 84.2% | Cytotoxicity study in B16F10 cells, % viability ([4]; 200 μM): 74.8% | Cytotoxicity study in B16F10 cells, % viability ([4]; 250 μM): 24.6%

CCC(O)CNC(=O)/C=C/c1ccc(C)cc1 (centres unmarked) [Compound A-63, (2E)-N-(2-hydroxybutyl)-3-(4-methylphenyl)prop-2-enamide]
RM0 [1]: 2.39 | inhibition at 500 µM [2]: 21.2 ± 1.26% | inhibition at 500 µM [3]: 30.2 ± 10.2% | Cytotoxicity study in B16F10 cells, % viability ([4]; 150 μM): 90.2% | Cytotoxicity study in B16F10 cells, % viability ([4]; 200 μM): 87.3% | Cytotoxicity study in B16F10 cells, % viability ([4]; 250 μM): 87.4%

O=C(/C=C/c1ccc(Cl)cc1Cl)NCCCO [H-296/20, (2E)-3-(2,4-dichlorophenyl)-N-(3-hydroxypropyl)prop-2-enamide]
RM0 [1]: 2.11 | inhibition at 500 µM [2]: 18.6 ± 1.67% | inhibition at 500 µM [3]: 17.9 ± 7.36% | Cytotoxicity study in B16F10 cells, % viability ([4]; 150 μM): 67.0% | Cytotoxicity study in B16F10 cells, % viability ([4]; 200 μM): 57.0% | Cytotoxicity study in B16F10 cells, % viability ([4]; 250 μM): 38.3%

CC(C)C(CO)NC(=O)/C=C/c1ccc(Cl)cc1 (centres unmarked) [Compound A-106, (2E)-3-(4-chlorophenyl)-N-(1-hydroxy-3-methylbutan-2-yl)prop-2-enamide]
RM0 [1]: 2.76 | inhibition at 500 µM [2]: 41.2 ± 0.81% | inhibition at 500 µM [3]: 57.6 ± 2.11% | Cytotoxicity study in B16F10 cells, % viability ([4]; 150 μM): 85.9% | Cytotoxicity study in B16F10 cells, % viability ([4]; 200 μM): 88.1% | Cytotoxicity study in B16F10 cells, % viability ([4]; 250 μM): 72.6%

O=C(/C=C/c1ccc(Cl)cc1)NCCCCCCO [H-426/21, (2E)-3-(4-chlorophenyl)-N-(6-hydroxyhexyl)prop-2-enamide]
RM0 [1]: 3.02 | inhibition at 125 µM ([2]; 125 μM): 30.7 ± 1.82% | inhibition at 125 µM ([3]; 125 μM): 39.9 ± 3.21% | Cytotoxicity study in B16F10 cells, % viability ([4]; 150 μM): 30.3% | Cytotoxicity study in B16F10 cells, % viability ([4]; 200 μM): 28.2% | Cytotoxicity study in B16F10 cells, % viability ([4]; 250 μM): 28.3%

O=C(/C=C/c1ccc(Cl)cc1)N1CCC(O)CC1 [Compound A-99, (2E)-3-(4-chlorophenyl)-1-(4-hydroxypiperidin-1-yl)prop-2-en-1-one]
RM0 [1]: 2.27 | inhibition at 500 µM [3]: 75.1 ± 1.6% | Cytotoxicity study in B16F10 cells, % viability ([4]; 150 μM): 109.8% | Cytotoxicity study in B16F10 cells, % viability ([4]; 200 μM): 102.6% | Cytotoxicity study in B16F10 cells, % viability ([4]; 250 μM): 96.6%

Nc1c2ccccc2nc2ccccc12 [Compound 9-AA, reference compound]
Increase in the number of yellow wells compared to the reference level, TA1535 [7]: 10.25 and 15.41
